Results: patent US20250314668A1, “DNAZYMES FOR SENSING AND IMAGING TARGET MOLECULES” (BOARD OF REGENTS, THE UNIVERSITY OF TEXAS SYSTEM, priority 2024, published 2025)
Entries after “also recorded” stand apart in the source; their conditions may differ. d = 2'-deoxy (DNA); m = 2'-O-methyl; r = 2'-OH (RNA)

What was measured:
HT1080 cells = test: Fe^2+ and Fe^3+ imaging in cells treated with SAS and Fer-1, with or without NCOA4 knock down; format: cell-based
Description: Ferroptosis is a Fe-related cell death. To understand how Fe^2+ and Fe^3+ have a role in this process, the cells were incubated with Sulfasalazine (SAS), which inhibits System Xc- and induces ferroptosis. Elevated Fe^2+ and Fe^3+ levels, as well as an elevated Fe^3+/Fe^2+ ratio over time, were observed when compared with nontreated controls. This elevation is inhibited by Ferrostatin-1 (Fer-1), an antioxidant that inhibits lipid peroxidation by scavenging alkoxyl radicals. […] This observation indicates the association between Fe levels and lipid peroxidation.
To understand how labile iron and iron redox changes are associated with cell ferroptosis, the study focused on the regulatory effects of NCOA4 on Fe^2+ and Fe^3+. NCOA4 is a key gene that regulates iron homeostasis through ferritinophagy, degrading iron storage protein, and releasing iron into the cell. To understand how NCOA4 influences Fe^2+ and Fe^3+, the study used the CRISPR/Cas technique to knock down NCOA4 expressions. As shown with the western blot, single guide RNAs knocked down the expression of NCOA4 in the HT1080 cells. In these cells, reduced Fe^2+ and Fe^3+ signals were detected as indicated by the DNAzyme sensors. In the meanwhile, the redox ratio of Fe^3+/Fe^2+ elevated, indicating the NCOA4 may not only regulate the labile iron amount but also the Fe redox states.
On the contrary, when inhibiting ferroptosis with Fer-1, reduced Fe^2+ and Fe^3+ levels were observed.

[1] = PAGE gel activity assays of Fe^2+ H5 DNAzyme (cleavage site, truncation, pH, mutation combinations, selectivity); format: biochemical; details: for cleavage by the original Fe^2+ H5 DNAzyme: presence of Fe^2+, anaerobic conditions; for relative activity of combined point mutations versus original: original FAM-labeled substrate, 100 μM FeCl2, 2 hours, room temperature
Source text: RNA Cleavage Dependence of Fe^2+ H5 and Fe^3+ B12 DNAzymes: To investigate the Fe^2+ H5 and Fe^3+ B12 DNAzymes, various cleavage site modifications were incorporated into the substrate strands. The original Fe^2+ H5 DNAzyme was combined with Fe^2+ H5 substrate strands containing either a 2′-hydroxyl (2′OH), 2′-hydrogen (2′H), or 2′O-methyl (2′OMe) at the cleavage site. The original Fe^2+ H5 DNAzyme cleaves the Fe^2+ H5 substrate strand containing 2′OH at the cleavage site in the presence of Fe^2+ under anaerobic conditions. […] Similarly, the original Fe^3+ B12 DNAzyme was combined with Fe^3+ B12 substrate strands containing either 2′OH, 2′H, or 2′OMe at the cleavage site. The original Fe^3+ B12 DNAzyme cleaves the Fe^3+ B12 substrate strand containing 2′OH at the cleavage site in the presence of Fe^3+. […] These findings highlight the critical role of the 2′OH group at the cleavage site in enabling DNAzyme activity for both Fe^2+ H5 and Fe^3+ B12 systems, as substitutions with 2′H or 2′OMe impede cleavage.
Truncations of Fe^2+ H5 and Fe^3+ B12 DNAzymes' Binding Arms: To further investigate the Fe^2+ H5 and Fe^3+ B12 DNAzymes, the DNAzymes were truncated at the 5′ and 3′ ends and tested using the FAM-labeled original substrate strand through activity assays assessed by PAGE gel. The activity of the Fe^2+ H5 DNAzyme with the original substrate strand remains relatively unchanged when 1 or 2 nucleotides are truncated from either the 3′ or 5′ end. […] The activity of the Fe^3+ B12 DNAzyme with the original substrate strand is maintained when 1 or 2 nucleotides are truncated from the […]. A notable reduction in relative intensity occurs when 3, 4, or 5 nucleotides are truncated from the 5′ end. Additionally, truncation of 1, 2, or 3 nucleotides from the 3′ end also results in a decrease in relative intensity.
pH Dependency of Fe^2+ H5 and Fe^3+ B12 DNAzymes: To further investigate the impact of reaction conditions on catalytic activity, the study evaluated the influence of pH system. For the Fe^2+ H5 DNAzyme, the study assessed cleavage efficiency across a pH range of 6.0 to 7.5 in MOPS, MES, Bis-Tris, or Tris under anaerobic conditions with 100 μM FeCl2.
Combination of Fe^2+ H5 DNAzyme strand Improvements: Given the enhanced activity observed with several point mutations in the Fe^2+ H5 DNAzyme strand, the study investigated whether combinations of these point mutations would further improve the DNAzyme's activity. The study designed 41 combinations of the 6-point mutations located at positions 39 (A39T and A39G), 40 (A40C), 51 (G51C), 52 (C52G), and 54 (T54C), along with the original Fe^2+ H5. Each sequence was tested with the original FAM-labeled Fe^2+ substrate strand in the presence of 100 μM FeCl2 for 2 hours at room temperature. […] Certain combinations of mutations enhance activity, while others diminish it, indicating interactions that are not merely additive. The specific positions of the mutations play a critical role in determining the overall activity, with some combinations inducing beneficial conformational changes and others disrupting key structural elements. These findings highlight the importance of understanding the contextual interplay of mutations for optimizing DNAzyme performance. The identified combinations that increase activity offer valuable insights for the future engineering of more efficient DNAzyme variants.
Combining Enhanced Fe^2+ H5 and Fe^3+ B12 DNAzymes Single Point Mutations: To assess the potential additive effects of combining enhanced Fe^2+ H5 DNAzyme strands with substrate strands, the study evaluated the relative intensities of point mutations within these strands. Reactions were conducted in a buffer solution containing 25 mM Bis-Tris, 200 mM NaCl at pH 6.5, with 250 nM each of the mutated H5 DNAzyme strand and the FAM-labeled mutated H5 substrate strand, and 100 μM FeCl2. […]

[2] = Point mutation gel cleavage assay of Fe^2+ H5 DNAzyme and substrate (heat map); format: biochemical; details: 100 μM FeCl2, pH 6.5, anaerobic, overnight; for activity of mutated substrate strand normalized to original Fe^2+ H5 Substrate: original DNAzyme strand; for activity of mutated DNAzyme strand normalized to original Fe^2+ H5 DNAzyme: FAM-labeled original substrate
Description: (§1) FIG. 7 depicts a heat map illustrating the impact of point mutations within the catalytic core of the Fe^2+ H5 DNAzyme, against the unaltered Fe^2+ H5 substrate strand for comparative analysis with 25 mM Bis Tris, 200 mM NaCl at pH 6.5 with 100 μM FeCl2 in anaerobic conditions. The reaction occurred overnight at room temperature and analyzed by polyacrylamide gel electrophoresis.
as §1, with “8” for “7”, “Substrate strand,” for “DNAzyme,”, “DNAzyme” for “substrate”
(§2) Point mutations were intentionally introduced into the Fe^2+ H5 DNAzyme, and subsequently assessed in comparison to the unaltered Fe^2+ H5 Substrate under controlled reaction conditions. These conditions include a solution containing 25 mM Bis Tris, 200 mM NaCl at pH 6.5, with concentrations set at 250 nM for both the mutated H5 DNAzyme Strand and the FAM-labeled Original H5 Substrate Strand, alongside 100 μM FeCl2. The reaction proceeded overnight at room temperature under anaerobic conditions, followed by analysis via electrophoresis on a 15% denaturing gel.
as §2, with “Fe^2+ H5 Substrate Strand, and subsequently” for “Fe^2+ H5 DNAzyme, and subsequently”, “Fe^2+ H5 DNAzyme under controlled” for “Fe^2+ H5 Substrate under controlled”, “both the Original H5 DNAzyme” for “both the mutated H5 DNAzyme”, “the FAM-labeled mutated H5 Substrate” for “the FAM-labeled Original H5 Substrate”

CCOC(=O)c1ccc(NC2CCCCC2)c(N)c1 [Fer-1, Ferrostatin-1]
effect of Fer-1 on the SAS-induced elevation of Fe levels (HT1080 cells; Fer-1 added to SAS-treated cells): inhibited; also recorded: reduced
Fe^2+ and Fe^3+ levels in control guide RNA cells (HT1080 cells): reduced
Fe^2+ and Fe^3+ levels compared with nontreated controls (HT1080 cells; over time): slightly reduced

O=C(O)c1cc(/N=N/c2ccc(S(=O)(=O)Nc3ccccn3)cc2)ccc1O [SAS, Sulfasalazine]
Fe^2+ and Fe^3+ levels in control guide RNA cells (HT1080 cells): elevated
Fe^2+ and Fe^3+ levels compared with nontreated controls (HT1080 cells; over time): Elevated
Fe^3+/Fe^2+ ratio compared with nontreated controls (HT1080 cells; over time): elevated
increase in Fe^2+ and Fe^3+ levels in NCOA4 downregulated cells (HT1080 cells; similar treatments as control cells): smaller increase

Fe^2+ H5 Original Substrate (2′H) (CGGACCCGTATCAATCTCACGTATAGGATATCCA; DNA, backbone not given here)
cleavage by the original Fe^2+ H5 DNAzyme [1]: does not cleave

Fe^2+ H5 Original Substrate (2′OMe) (CGGACCCGTATCAATCTCACGTATAGGATATCCA; sugars from the 5' end d24 m1 d9, backbone not given here)
cleavage by the original Fe^2+ H5 DNAzyme [1]: does not cleave

Fe^2+ H5 Substrate A13C (CGGACCCGTATCCATCTCACGTATAGGATATCCA; DNAzyme; sugars from the 5' end d24 r1 d9, backbone not given here; FAM-labeled in assays, further chemistry not fully specified)
activity of mutated substrate strand normalized to original Fe^2+ H5 Substrate [2]: heightened activity

Fe^2+ H5 Substrate A14T (CGGACCCGTATCATTCTCACGTATAGGATATCCA; DNAzyme; sugars from the 5' end d24 r1 d9, backbone not given here; FAM-labeled in assays, further chemistry not fully specified)
activity of mutated substrate strand normalized to original Fe^2+ H5 Substrate [2]: heightened activity

Fe^2+ H5 Substrate T11C (CGGACCCGTACCAATCTCACGTATAGGATATCCA; DNAzyme; sugars from the 5' end d24 r1 d9, backbone not given here; FAM-labeled in assays, further chemistry not fully specified)
activity of mutated substrate strand normalized to original Fe^2+ H5 Substrate [2]: heightened activity

B1: Fe^2+ H5 DNAzyme A39T (nucleic acid)
chain: TGGATATCTCCTAGCCAGACTGTTATGTGTGATACGGCTAACTTCGTGATGCCTCTACGGGTCCG
modifications: DNA, backbone not given here
activity of mutated DNAzyme strand normalized to original Fe^2+ H5 DNAzyme [2]: heightened activity

B2: Fe^2+ H5 DNAzyme Combo 41 (nucleic acid)
chain: TGGATATCTCCTAGCCAGACTGTTATGTGTGATACGGCGCACTTCGTGATCGCCCTACGGGTCCG
modifications: DNA, backbone not given here
relative activity of combined point mutations versus original [1]: increased the relative activity

B3: Fe^2+ H5 DNAzyme Combo 30 (nucleic acid)
chain: TGGATATCTCCTAGCCAGACTGTTATGTGTGATACGGCGCACTTCGTGATGCCCCTACGGGTCCG
modifications: DNA, backbone not given here
relative activity of combined point mutations versus original [1]: increased the relative activity

B4: Fe^2+ H5 DNAzyme T54C (nucleic acid)
chain: TGGATATCTCCTAGCCAGACTGTTATGTGTGATACGGCAAACTTCGTGATGCCCCTACGGGTCCG
modifications: DNA, backbone not given here
activity of mutated DNAzyme strand normalized to original Fe^2+ H5 DNAzyme [2]: heightened activity

B5: Fe^2+ H5 DNAzyme A39G (nucleic acid)
chain: TGGATATCTCCTAGCCAGACTGTTATGTGTGATACGGCGAACTTCGTGATGCCTCTACGGGTCCG
modifications: DNA, backbone not given here
activity of mutated DNAzyme strand normalized to original Fe^2+ H5 DNAzyme [2]: heightened activity

B6: Fe^2+ H5 DNAzyme Combo 31 (nucleic acid)
chain: TGGATATCTCCTAGCCAGACTGTTATGTGTGATACGGCGCACTTCGTGATCGCTCTACGGGTCCG
modifications: DNA, backbone not given here
relative activity of combined point mutations versus original [1]: decreased the relative activity

B7: Fe^2+ H5 DNAzyme A40C (nucleic acid)
chain: TGGATATCTCCTAGCCAGACTGTTATGTGTGATACGGCACACTTCGTGATGCCTCTACGGGTCCG
modifications: DNA, backbone not given here
activity of mutated DNAzyme strand normalized to original Fe^2+ H5 DNAzyme [2]: heightened activity

B8: Fe^2+ H5 DNAzyme Combo 29 (nucleic acid)
chain: TGGATATCTCCTAGCCAGACTGTTATGTGTGATACGGCGAACTTCGTGATCGCTCTACGGGTCCG
modifications: DNA, backbone not given here
relative activity of combined point mutations versus original [1]: increased the relative activity

B9: Fe^2+ H5 DNAzyme G51C (nucleic acid)
chain: TGGATATCTCCTAGCCAGACTGTTATGTGTGATACGGCAAACTTCGTGATCCCTCTACGGGTCCG
modifications: DNA, backbone not given here
activity of mutated DNAzyme strand normalized to original Fe^2+ H5 DNAzyme [2]: heightened activity

B10: Fe^2+ H5 DNAzyme C52G (nucleic acid)
chain: TGGATATCTCCTAGCCAGACTGTTATGTGTGATACGGCAAACTTCGTGATGGCTCTACGGGTCCG
modifications: DNA, backbone not given here
activity of mutated DNAzyme strand normalized to original Fe^2+ H5 DNAzyme [2]: heightened activity
